Laboratory results taken from US20260216138A1, “IDENTIFICATION OF OTUD7B INHIBITOR 7BI AND ITS APPLICATION IN REDUCING GROWTH OF NSCLC AND LEUKEMIA CELLS” (The University of North Carolina at Chapel Hill, priority 2023, published 2026).

How the values were obtained:
[1] = target: T1, USP21 (Homo sapiens, UniProt Q9UK80); experiment: In vitro USP21 deubiquitination assay, K11-linked di-ub cleavage; type: biochemical; conditions: 80 nM USP21, 10 min
T1 construct: USP21 (residues 196-565); GST (N, cleaved yes); made in house; host or cells: E. coli BL21-Codon Plus (DE3)-RIL
T1 sequence (Q9UK80 196-565): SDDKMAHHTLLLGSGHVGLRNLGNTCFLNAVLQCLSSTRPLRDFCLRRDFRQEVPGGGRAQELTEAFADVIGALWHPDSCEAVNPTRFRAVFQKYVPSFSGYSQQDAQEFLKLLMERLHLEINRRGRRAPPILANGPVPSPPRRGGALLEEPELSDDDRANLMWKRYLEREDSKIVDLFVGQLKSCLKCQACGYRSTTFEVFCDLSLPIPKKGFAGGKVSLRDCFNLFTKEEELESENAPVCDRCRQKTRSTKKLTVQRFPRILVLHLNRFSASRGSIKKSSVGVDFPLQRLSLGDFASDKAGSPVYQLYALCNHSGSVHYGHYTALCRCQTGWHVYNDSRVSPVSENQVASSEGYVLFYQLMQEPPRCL
Description: OTUD7B (residues 56-446), OTUD7A (residues 1-462), USP21 (residues 196-565), and USP9X (residues 1551-1970) proteins were expressed in E. Coli BL21-Codon Plus (DE3)-RIL cells. Through an N-terminal GST tag, the DUBs were purified by affinity chromatography using glutathione sepharose 4B (GS4B) resin. Following the liberation of the DUB from the GST tag. the DUBs were subjected to size exclusion chromatography (SEC). To form the K11-linked di-ub, individual ubiquitins (K11R-substituted donor Ub and ΔGG acceptor ubiquitin) were purified and fluorescently-labeled on an N-terminal cysteine using either Cy3- (donor) or Cy5-maleimide (acceptor). The different ubiquitins were then added to a mixture containing UBA1, UBE2S, and MgATP to form di-ub. After an overnight incubation at room temperature, UBE2S was removed by cation-exchange chromatography and the di-ub was purified by SEC. These proteins were used to monitor DUB activity in the presence or absence of the various inhibitors. The inhibitors were incubated with DUBs in a reaction buffer (20 mM Hepes pH=8.0, 200 mM NaCl, 0.25 mg/mL BSA and 0.005% Tween-20) for 5 min at room temperature and then 0.5 uM fluorescently-labeled di-ub (K11-linked) was added to start the reaction. 5×SDS-PAGE loading buffer was used to quench the reaction at the indicated time point. […] Mono-ubiquitin was quantified to generate an IC50 value. […]

[2] = target: T2, OTUD7B binding to GβL (Homo sapiens, UniProt Q6GQQ9); experiment: OTUD7B binding to GβL; type: cell-based
T2 sequence (Q6GQQ9 1-843): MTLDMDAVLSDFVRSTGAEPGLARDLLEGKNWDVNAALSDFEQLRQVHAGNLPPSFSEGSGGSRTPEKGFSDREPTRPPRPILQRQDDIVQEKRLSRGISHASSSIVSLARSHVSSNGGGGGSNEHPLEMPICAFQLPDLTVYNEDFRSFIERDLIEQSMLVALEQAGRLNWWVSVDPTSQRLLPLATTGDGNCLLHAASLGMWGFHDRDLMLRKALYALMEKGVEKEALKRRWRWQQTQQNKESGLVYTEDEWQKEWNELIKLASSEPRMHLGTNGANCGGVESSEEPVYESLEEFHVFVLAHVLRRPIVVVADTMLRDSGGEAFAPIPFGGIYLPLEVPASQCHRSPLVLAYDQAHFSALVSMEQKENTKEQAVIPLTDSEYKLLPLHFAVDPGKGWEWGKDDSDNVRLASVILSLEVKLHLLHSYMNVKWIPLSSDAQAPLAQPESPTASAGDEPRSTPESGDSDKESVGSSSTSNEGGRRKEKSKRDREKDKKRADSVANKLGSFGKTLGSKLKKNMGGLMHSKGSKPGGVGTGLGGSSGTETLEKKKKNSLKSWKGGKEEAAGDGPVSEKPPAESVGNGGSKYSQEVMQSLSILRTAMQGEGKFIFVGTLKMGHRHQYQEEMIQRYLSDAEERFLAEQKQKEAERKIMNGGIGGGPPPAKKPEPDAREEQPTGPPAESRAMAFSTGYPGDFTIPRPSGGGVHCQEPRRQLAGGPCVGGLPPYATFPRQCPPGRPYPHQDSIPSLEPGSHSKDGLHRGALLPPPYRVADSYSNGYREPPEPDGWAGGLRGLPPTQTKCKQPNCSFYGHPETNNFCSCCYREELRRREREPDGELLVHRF
Procedure: Cells were harvested and lysed in EBC buffer (50 mM Tris pH 7.5, 120 mM NaCl, 0.5% NP-40) supplemented with protease inhibitor cocktail (EDTA-free, mini-tablet) (Bimake) and phosphatase inhibitor cocktail (Bimake) by rotating in the cold room for 10 min followed by high-speed centrifugation at 4° C. The protein concentrations in supernatants of whole cell lysates were measured by NanoDrop OneC using the Bio-Rad Bradford protein assay reagent. Equal amounts of whole cell lysates were resolved on SDS-PAGE and immunoblotted with indicated antibodies. For immunoprecipitation analysis, 1 mg of total cell lysate was incubated with the indicated beads for 3-4 hr at 4° C. The recovered immuno-complexes were washed thoroughly three times with NETN buffer (20 mM Tris, pH 8.0, 100 mM NaCl, 1 mM EDTA and 0.5% NP-40) before being resuspended in SDS sample buffer and resolved on SDS-PAGE and immunoblotted with indicated antibodies.

inhibition of USP21 [1]: failed to inhibit
Structure (SMILES): Cc1cc(NC(=O)c2cnn(C)c2C(=O)Nc2cc(C)nn2C2CCCC2)n(C2CCCC2)n1 [7Bi]
OTUD7B binding to GβL [2]: nor significantly affected OTUD7B binding to GβL
